Drawing on US11673965B2, “Method of treating metastatic triple negative breast cancer with radiotherapy combined with phosphatidyl inositol-3 kinase delta/gamma inhibitors and anti-PD-1 antibodies” (Seoul National University R&DB Foundation, priority 2019, dated 2023), this text covers Mean tumor volume for one compound.

The test system of this experiment is 4T1-luc triple negative breast cancer cells. The experiment is described as follows: Size change of tumor in triple negative breast cancer allograft mouse model. It counts as in vivo, mouse (BALB/c). The note with it: 31st day; 4T1-luc allograft; duvelisib 4 mg/kg and/or PD-1 blockade 10 mg/kg by injection 6 times; RT 8 Gy×3. How it is done: A triple negative breast cancer cell line (4T1-luc) was cultured in DMEM (Dulbecco's Modified Eagle's Medium, CORNING™) medium containing 10% (v/v) fetal bovine serum (FBS) and 1% (w/v) Penicillin-Streptomycin, using a cell culture flask, in a thermostat cell culture device under the condition of 37° C., 5% CO2.
6×10^5 4T1-luc triple negative breast cancer cells prepared in Example 1-1 were injected to the right hindlimb of a BALB/c female age standard (8 weeks) mice. At the 10th day after injecting each of the cancer cells, the mice with the tumor volume up to 40 mm^3 were selected, and were used for later experiments.
The triple negative breast cancer (TNBC) mouse model prepared by the method of Example 1-2 was assigned to 7 groups in total from the 10th day after cancer cell transplantation, and each treatment method was performed, and it was grouped into 7 groups so that the tumor mean volume of 7 mice was 40 mm^3 per group, and were used for later experiments.
Each treatment was progressed for 31 days after tumor transplantation. […]
On the day of each treatment, the size of tumor, the length and width were measured using Vernier caliper, and then the volume (mm^3) of tumor was calculated by the method of the following equation 1. […]

The compound `C[C@H](Nc1ncnc2nc[nH]c12)c1cc2cccc(Cl)c2c(=O)n1-c1ccccc1` [PI3K γ δ inhibitor, duvelisib] returned a Mean tumor volume of 786.59 mm^3.
